The source of these data is patent US20250011722A1, “HEPATIC ORGANOIDS” (Koninklijke Nederlandse Akademie van Wetenschappen, priority 2021, published 2025).

What all share (assay type): cell-based, human
The test system of series [1] is APOB^−/− organoids. Description: bulk RNA-sequencing of drug-treated organoids. As to the method:
Organoids from 1 well of a 12-well plate were harvested and washed in cold AdvDMEM+++. Organoid pellets were lysed in 1 ml TRIzol Reagent and subsequently snap-frozen in liquid nitrogen. RNA was extracted according to the manufacturer's protocol. RNA integrity was measured using the Agilent RNA 6000 Nano kit with the Agilent 2100 Bioanalyzer and RNA concentrations were determined using the Qubit RNA HS Assay Kit. RNA integrity number (RIN) values of RNA samples were typically 9.5-10 and never below 9.0. RNA libraries were prepared TruSeq Stranded mRNA polyA kit and single-end (1×75 bp) sequenced on an Illumina Nextseq 2000 or Nextseq 500. Reads were mapped to the human GRCh38 genome assembly. Differential gene expression analysis was performed using the DESeq2 package (Love et al., 2014) in RStudio. Considered log 2 fold changes and significance (p-values) are indicated throughout the paper. Data visualization was obtained using the ggplot2, ComplexHeatmap, and EnhancedVolcano packages in RStudio or manually plotted using GraphPad Prism 8.

The test system of series [2] is APOB^−/− organoids. Description: anti-NAFLD drug screening, Nile Red lipid staining and lipid score. The note with it: APOB^−/− organoids exposed to drugs for 7 days. The procedure: (§1) Compound stocks of all drugs were made in DMSO, except for recombinant hFGF19 and hFGF21 which were reconstituted in AdvDMEM+++. Drugs were dissolved in HEP medium with a maximum final concentration of 0.2% DMSO. The drug panel, their targets, and concentrations tested are described in Table 2.
(§2) APOB^−/− and MTTP^−/− organoids were exposed to the drugs or vehicle in 24-well plates for 7 days with 2 medium changes. Wild type organoids were first made steatotic by pre-incubation with 500 μM FFAs (oleic acid and palmitic acid, 1:1 ratio) for 2 days. Then, FFA-loaded organoids were treated with the different drugs, still in the presence of FFA, for 7 days with 2 medium changes. All organoids were harvested for subsequent lipid staining and lipid scoring as described below. Drug effects were evaluated by observing the lipid droplet fluorescence characteristics within all organoids within the whole well. Quantitative analyses were performed in representative organoids (n≥3) per drug concentration per steatosis organoid model. Drug effects were validated in at least two independent experiments. For drug screening in PLIN2::tdTomato reporter organoids, the organoids were plated in 96-well black plates and treated with the indicated drugs. Pictures were taken over a 7-day time course using the EVOS FL Auto Imaging System. Images and fluorescence quantifications are representative of two independent experiments.
(§3) Organoids were carefully harvested in cold AdvDMEM+++ and washed once with cold AdvDMEM+++ using low-speed centrifugations. Organoids were fixed in 4% formaldehyde at RT for 30 min-1 hour. For lipid stainings, organoids were washed twice with PBS, and incubated with Nile Red (1 μg/μl) and DAPI (1 μg/μl) for 20 min at RT. Organoids were washed twice with PBS, and transferred in 100 μl PBS to a well of a 96-well black SensoPlate for imaging analysis. […] Organoids were washed once with 0.5% BSA-PBS and subsequently incubated with primary antibodies in 2.5% BSA-PBS O/N at 4° C. After 3 washes with 0.5% BSA-PBS, organoids were incubated with secondary antibodies in 2.5% BSA-PBS for 2-4 hours at RT. Organoids were washed once with 0.5% BSA-PBS, after which they were incubated with DAPI (1 μg/μl) in 0.5% BSA-PBS for 20 min at RT, and washed once more with 0.5% BSA-PBS. Organoids were then transferred in 100 μl 0.5% BSA-PBS to a well of a 96-well black SensoPlate.
(§4) Stained organoids were imaged on a Leica Sp8 confocal. Fluorescent images were processed using Photoshop CS4 or ImageJ software. The lipid score was calculated using Fiji software. The lipid score is defined by integrating the lipid droplet fluorescence and lipid droplet area coverage as follows: a fluorescence threshold derived from the lipid droplet signal is determined on Z-projected images to convert them into binary images. The region of interest (ROI) (organoid surface area) is defined based on fluorescence signal from the counterstained DAPI^+ nuclei. Then, particle measurement analysis is performed to define the fluorescence area covered within the defined ROI. The lipid score represents a normalized score of the resulting data on a linear 0 to 1 scale, where the mean calculated values from wild type organoids are arbitrarily set to 0, while the mean calculated values from either vehicle-treated APOB^−/− or MTTP^−/− organoids or vehicle-treated FFA-loaded organoids are set to 1, allowing scoring of drug effectiveness within these boundaries. Quantification of the amount of lipid droplets was performed manually by counting droplets within a given ROI (organoid surface area). The lipid droplet area coverage is determined identical to the lipid score without the final normalization steps.

The subject of a further series is MTTP^−/− organoids. The description is as above. The note with it: MTTP^−/− organoids exposed to drugs for 7 days. As to the method:
as §1, §2, §3, §4

For series [3], the system named is FFA-loaded wild type organoids. The series is described as above. The following applies: wild type organoids pre-incubated with 500 μM FFAs 2 days, then drugs 7 days in presence of FFA. The procedure: Wild type human hepatocyte organoids were made steatotic by providing a concentrated mixture of exogenous FFAs (oleic acid (18:1) and palmitic acid (16:0), ratio 1:1) in the culture medium. The FFAs were dissolved in ethanol and thereafter conjugated to bovine serum albumin. Prior to fat loading, organoids were plated into small BME droplets (15 μl/drop) to facilitate FFA penetration. Total concentrations of FFA were 640 μM for transcriptomic analyses to mimic the level of steatosis observed in APOB^−/− or MTTP^−/− organoids.
as §1
as §2, with “experiments. […]” for “experiments. For drug screening in PLIN2::tdTomato reporter organoids, the organoids were plated in 96-well black plates and treated with the indicated drugs. Pictures were taken over a 7-day time course using the EVOS FL Auto Imaging System.”, “experiments. […]” for “experiments.”
as §4, with “Fluorescent images were processed using Photoshop CS4 or ImageJ software.” left out, “Quantification of the amount of lipid droplets was performed manually by counting droplets within a given ROI (organoid surface area). The lipid droplet area coverage is determined identical to the lipid score without the final normalization steps.” left out

Series [4] concerns PLIN2::tdTomato; MTTP^−/− reporter organoids. Description: drug screening in PLIN2 reporter organoids, fluorescence read-out. The note with it: PLIN2-tagged reporter organoids, ACCi or vehicle for 5 days. From the text:
PLIN2 reporter lines in the background of APOB^−/− or MTTP^−/− organoids were generated using CRISPR-HOT as described previously (Artegiani et al., 2020; Hendriks et al., 2021). Briefly, the transfection mixture consisted of a sgRNA targeting the C-terminus of PLIN2, a plasmid providing both Cas9 and a non-human sgRNA targeting the donor plasmid (Addgene #66940), and a donor plasmid encoding either tdTomato (Addgene #138567) or mNeon (a gift from V. Hornung). Upon transfection, the sgRNA targeting the donor plasmid linearizes the donor plasmid to facilitate NHEJ-mediated in-frame gene knock-in of the fluorescent tag into the PLIN2 C-terminus. Upon outgrowth of transfected organoids, fluorescent organoids became apparent. A bulk PLIN2-tagged fluorescence-pure culture was established by sorting single fluorescence-positive cells by FACS. Genotyping was performed to confirm precise gene knock-in.
APOB^−/− and MTTP^−/− organoids were exposed to the drugs or vehicle in 24-well plates for 7 days with 2 medium changes. […] Drug effects were evaluated by observing the lipid droplet fluorescence characteristics within all organoids within the whole well. Quantitative analyses were performed in representative organoids (n≥3) per drug concentration per steatosis organoid model. […] Images and fluorescence quantifications are representative of two independent experiments.

Entries after “also recorded” stand apart in the source; their conditions may differ.

Regarding `O=C(O)c1ccnc(N2CC(O)(c3ccc(OCc4c(-c5c(Cl)cccc5Cl)noc4C4CC4)cc3Cl)C2)c1` [FXRa, Cilofexor], in the series with APOB^−/− organoids [1], the FGF19 expression result was “strongly upregulated”; the “expression of FXR target genes CYP7A1 and CYP27A1” value is on record as “downregulation”; the “expression of NR0B2 (SHP)” value is “induction”; the “expression of de novo lipogenesis-related genes, including DGAT2, ACSS2, and GPAM” value is listed as “repress”. In addition, in the series with APOB^−/− organoids [1], the “expression of key hepatocyte markers (ALB, TTR)” value is given as “downregulation”; the “expression of transporters such as BSEP (ABCB11)” value is recorded as “induction”; the “genes of TGFβ regulation of extracellular matrix” value is recorded as “gene induction patterns suggestive of TGFβ-related extracellular matrix remodeling”.

For `Oc1ccc(-c2nc(-c3ccncc3)c(-c3ccc(F)cc3)[nH]2)cc1` [p38i, SB202190], the “steatosis phenotype (lipid staining, lipid score)” value (“steatosis phenotype” below) with APOB^−/− organoids [2] and with MTTP^−/− organoids was “reduced the steatosis phenotype” in each case.

In the case of `CS(=O)(=O)O.O=C([C@@H]1CCCN(c2ccc3[nH]c(C4(n5cc(Cl)cn5)CC4)nc3n2)C1)N1CCCC1` [DGAT2i, PF06424439], the “transcriptomic changes versus vehicle-treated organoids” value in the series on APOB^−/− organoids [1] was “transcriptomically identical to vehicle-treated organoids; also recorded: very few transcriptomic changes”. Also, the “steatosis phenotype” value (in the series on APOB^−/− organoids [2]; with MTTP^−/− organoids; in series [3]) was “Effective” throughout.

Take `O=C(Nc1ccc2[nH]nc(-c3ccncc3)c2c1)[C@@H]1CCN(CC(=O)N2CCN(c3ccc(-c4ncccn4)cc3)CC2)C1` [ERKi, SCH772984]: the “steatosis phenotype” value in the series with APOB^−/− organoids [2] and with MTTP^−/− organoids was “did not alter the steatosis phenotype” throughout.

As for `Cc1nnc(-c2cc(C(=O)N3CCC(c4ccc(C#N)cc4)CC3)c(C)cc2C2CCC2)[nH]1` [FASi, TVB2640], the “expression of genes important for cell proliferation and DNA synthesis” value in the series on APOB^−/− organoids [1] is recorded as “downregulation”. In addition, the “expression of key genes involved in glycolysis (ALDOB, HK2, ENO2, PFKFB3/4)” value in the series with APOB^−/− organoids [1] is reported as “downregulated”. In addition, in the series on APOB^−/− organoids [1], the “expression of lipogenic genes (ACACA, FASN, SREBF1, etc.)” value is listed as “increased expression”. In addition, the “steatosis phenotype” value (in the series with APOB^−/− organoids [2]; in the series with MTTP^−/− organoids; in series [3]) was “Effective” in each case.

For `COc1ccccc1[C@H](Cn1c(=O)n(C(C)(C)C(=O)O)c(=O)c2c(C)c(-c3ncco3)sc21)OC1CCOCC1` [ACCi, Firsocostat], the “expression of genes important for cell proliferation and DNA synthesis” value in the series with APOB^−/− organoids [1] is on record as “downregulation”. Also, in the series on APOB^−/− organoids [1], the “expression of key genes involved in glycolysis (ALDOB, HK2, ENO2, PFKFB3/4)” value is “downregulated”. For the same compound, the “expression of lipogenic genes (ACACA, FASN, SREBF1, etc.)” value in the series on APOB^−/− organoids [1] is “increased expression”. Also, the “steatosis phenotype” value (in the series on APOB^−/− organoids [2]; with MTTP^−/− organoids; in series [3]) was “Effective” in each case. Further, the “endogenous fluorescent signal of PLIN2 reporter” value in series [4] is given as “reduced the endogenous fluorescent signal”.

As to “hFGF19: recombinant human FGF19, activates β-Klotho/FGFRs”, in the series with APOB^−/− organoids [1], the “expression of FXR target genes CYP7A1 and CYP27A1” value is given as “downregulation”; the “expression of NR0B2 (SHP)” value was “induction”; the “expression of de novo lipogenesis-related genes, including DGAT2, ACSS2, and GPAM” value was “repress”; the “expression of key hepatocyte markers (ALB, TTR)” value is recorded as “downregulation”. Also, the “genes of TGFβ regulation of extracellular matrix” value with APOB^−/− organoids [1] is “gene induction patterns suggestive of TGFβ-related extracellular matrix remodeling”. In addition, the “steatosis phenotype” value in the series with APOB^−/− organoids [2] is reported as “marked steatosis-reducing effects”. Further, the “steatosis phenotype” value in the series on MTTP^−/− organoids is listed as “marked steatosis-reducing effects”. The “steatosis phenotype” value in series [3] is given as “marked steatosis-reducing effects”.
